As usually defined, the IC50 is the concentration needed to halve the response being measured. What is called EC50 is the concentration that produces a half-maximal response.

Experimental findings from patent publication US20220106301A1, “ACETAMIDO-PHENYLBENZAMIDE DERIVATIVES AND METHODS OF USING THE SAME” (Athenex, Inc., priority 2020, published 2022) are described below.

Sequence of CYP3A4 (P08684 whole entry): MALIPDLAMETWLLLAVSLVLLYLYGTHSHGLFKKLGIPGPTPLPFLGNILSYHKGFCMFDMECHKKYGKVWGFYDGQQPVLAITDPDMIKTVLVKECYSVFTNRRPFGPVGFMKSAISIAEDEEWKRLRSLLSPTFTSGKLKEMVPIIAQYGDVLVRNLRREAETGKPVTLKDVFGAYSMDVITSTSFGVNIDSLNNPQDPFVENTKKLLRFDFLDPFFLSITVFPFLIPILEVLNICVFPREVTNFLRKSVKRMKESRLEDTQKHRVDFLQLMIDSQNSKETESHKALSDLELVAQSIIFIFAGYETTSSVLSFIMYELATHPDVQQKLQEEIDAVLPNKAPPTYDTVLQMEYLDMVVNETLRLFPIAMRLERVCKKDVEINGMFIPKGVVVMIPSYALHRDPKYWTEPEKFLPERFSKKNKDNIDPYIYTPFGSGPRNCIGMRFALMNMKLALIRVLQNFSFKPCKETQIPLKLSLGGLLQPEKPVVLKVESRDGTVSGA

One series has as its target CYP3A4 (Homo sapiens, UniProt P08684). In words: Determination of CYP3A4 inhibitory activity (human liver microsome, Luciferin-IPA). Conditions: CYP3A4 IC50 (nM), 37° C. 11 minutes. In outline:
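Final compound concentrations 37, 111, 333, 1000 and 3000 nM; reaction at 37° C for 11 min, then luciferin detection reagent 5 min at room temperature with luminescence read-out. IC50 from nonlinear regression of dose-response.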
On the technique in general: Liver microsomes are a subcellular fraction often used to study metabolism.
`CCN(CCc1ccc(NC(=O)c2cc(OC)c(OC)cc2NC(=O)c2cc(=O)c3ccccc3o2)cc1)Cc1cccc(OC[C@@H]2CO[C@@](Cn3ccnc3)(c3ccc(Cl)cc3Cl)O2)c1` [Compound 127] gave an IC50 of less than 100 nM.
Same read-out and setting: for `CCn1cncc1CN(CCc1ccc(NC(=O)c2cc(OC)c(OC)cc2NC(=O)c2cnc3ccccc3n2)cc1)Cc1ccc2c(cnn2C)c1` [Compound 34] the value was 100 to 250 nM; for `COC(=O)c1ccc(CN(CCc2ccc(NC(=O)c3cc(OC)c(OC)cc3NC(=O)c3cc(=O)c4ccccc4o3)cc2)Cc2cccc(-n3ccnc3)c2)cc1` [Compound 218], 100 to 250 nM; for `COc1cc(NC(=O)c2cc(=O)c3ccccc3o2)c(C(=O)Nc2ccc(CCN(Cc3ccc4c(cnn4C)c3)Cc3ccc4c(c3)c(C)nn4C)cc2)cc1OC` [Compound 181], more than 1000 nM.
As for `COc1cncc(CN(CCc2ccc(NC(=O)c3cc(OC)c(OC)cc3NC(=O)c3cc(=O)c4ccccc4o3)cc2)Cc2ccc3c(c2)c(C)nn3C)c1` [Compound 63], the IC50 lay in the range of 500 to 1000 nM.
Molecule `COc1cncc(CN(CCc2ccc(NC(=O)c3ccc(C(=O)NS(=O)(=O)N(C)C)cc3NC(=O)c3cc(=O)c4ccccc4o3)cc2)Cc2ccc3c(cnn3C)c2)c1` [Compound 278] showed an IC50 of 250 to 500 nM.
Still for that read-out and setting: as for `COC(=O)c1ccc(C(=O)Nc2ccc(CCN(Cc3ccc4c(cnn4C)c3)Cc3ccc4c(cnn4C)c3)cc2)c(NC(=O)c2cc(=O)c3ccccc3o2)c1` [Compound 257], the figure is more than 1000 nM; as for `CCN(CCc1ccc(NC(=O)c2cc(OC)c(OC)cc2NC(=O)c2cc(=O)c3ccccc3o2)cc1)Cc1ccc(-c2ccco2)cc1` [Compound 143], more than 1000 nM.
With `COc1cc(NC(=O)c2cc(=O)c3ccccc3o2)c(C(=O)Nc2ccc(CCN(Cc3cccc(-n4ccnc4)c3)Cc3ccc4nn(C)cc4c3)cc2)cc1OC` [Compound 204], the IC50 was 250 to 500 nM.
`COc1cc(NC(=O)c2cc(=O)c3ccccc3o2)c(C(=O)Nc2ccc(CCN(Cc3ccc4cnn(C)c4c3)Cc3ccc4cnn(C)c4c3)cc2)cc1OC` [Compound 170] yielded an IC50 of more than 1000 nM.
On the same count and under the same terms, as for `COc1cc(NC(=O)c2cc(=O)c3ccccc3o2)c(C(=O)Nc2ccc(CCN(C)C(=O)CCc3ccncc3)cc2)cc1OC` [Compound 120], the figure is 100 to 250 nM; as for `CN(CCc1ccc(NC(=O)c2ccc(C(=O)OCc3cncs3)cc2NC(=O)c2cnc3ccccc3c2)cc1)Cc1ccc2c(cnn2C)c1` [Compound 283], 500 to 1000 nM; as for `COC(=O)c1ccc(C(=O)Nc2ccc(CCN(Cc3cccc(-n4ccnc4)c3)Cc3cccc(-n4ccnc4)c3)cc2)c(NC(=O)c2cc(=O)c3ccccc3o2)c1` [Compound 260], less than 100 nM.
The same measure, in the same setting: as for `COc1cc(NC(=O)c2cc(=O)c3ccccc3o2)c(C(=O)Nc2ccc(CCN(Cc3cccc(-n4ccnc4)c3)Cc3ccc4cnn(C)c4c3)cc2)cc1OC` [Compound 177], the figure is less than 100 nM; as for `Cn1ncc2cc(CN(CCc3ccc(NC(=O)c4ccc(C(=O)OCc5cncs5)cc4NC(=O)c4cc(=O)c5ccccc5o4)cc3)Cc3ccc4c(cnn4C)c3)ccc21` [Compound 266], more than 1000 nM.
Still for that read-out and setting: as for `CCn1ncc2cc(CN(CCc3ccc(NC(=O)c4cc(OC)c(OC)cc4NC(=O)C4CC(=O)c5ccccc5O4)cc3)Cc3cccc(-n4ccnc4)c3)ccc21` (centres unmarked) [Compound 205], the figure is 500 to 1000 nM; as for `COc1cc(NC(=O)C2CC(=O)c3ccccc3O2)c(C(=O)Nc2ccc(CCN(C)Cc3ccc(-c4ccncc4)cc3)cc2)cc1OC` (centres unmarked) [Compound 89], more than 1000 nM; as for `COc1cncc(CN(CCc2ccc(NC(=O)c3ccc(C(=O)OCCN4CCN(C)CC4)cc3NC(=O)c3cc(=O)c4ccccc4o3)cc2)Cc2ccc3c(cnn3C)c2)c1` [Compound 272], 250 to 500 nM.
For `COc1cc(NC(=O)c2cc(=O)c3ccccc3o2)c(C(=O)Nc2ccc(CCN(C)C(=O)c3cccc(-c4cccnc4)c3)cc2)cc1OC` [Compound 124], the IC50 is 250 to 500 nM.
Molecule `COc1cc(NC(=O)c2cc(=O)c3ccccc3o2)c(C(=O)Nc2ccc(CCN(Cc3cncc(C(C)C)c3)Cc3ccc4c(cnn4C)c3)cc2)cc1OC` [Compound 253] registered an IC50 of 500 to 1000 nM.

Still in this series, the particulars now being: read-out: CYP3A4 IC50, 37° C. 11 minutes.
Take `COc1cc2c(cc1OC)CN(CCc1ccc(-n3nnc(-c4cc(OC)c(OC)cc4NC(=O)c4cc(=O)c5ccccc5o4)n3)cc1)CC2.CS(=O)(=O)O.O` [encequidar methane sulfonic acid monohydrate]: the IC50 is more than 1000 nM.

Tested on in the next series: not listed separately
Briefly: Oral absorption of docetaxel in mice (plasma pharmacokinetics of oral docetaxel co-dosed with compound). It counts as in vivo. The following applies: CD-1 mice, oral docetaxel 10 mg/kg with oral compound (Compound 16 80 mg/kg, Compound 48 20 mg/kg, encequidar 10 mg/kg); plasma. Here is the method: In vivo activity of the compounds of the present disclosure was performed as follows: Eighteen 7- to 9-week-old CD-1 mice were fasted overnight prior to drug administration while they were allowed free access to water and were fed 4 hours post dosing. Mice were divided into four groups of three to five […] each.
Blood samples (approx. 30-50 μL) were obtained via peripheral veins of each mouse before (0) and 0.25, 0.5, 1, 2, 4, and 8 hours after docetaxel administration for control group (entry 1, Table C) and at 0.25, 0.5, 1, 2, 4, and 8 hours after docetaxel administration for rest of the groups (entries 2-4, Table C). Blood samples were treated with EDTA-K2 as anti-coagulant and placed on ice until centrifugation. Each blood sample was centrifuged at 4° C., 3000 g for 15 min within 0.5 hour from plasma collection. An aliquot of 20 μL plasma sample was protein precipitated with 100 μL IS (Internal Standard) solution (100 ng/mL labetalol+100 ng/mL tolbutamide in acetonitrile, 1:1), the mixture was vortex-mixed and centrifuged at 4000 rpm for 15 min at 4° C. An aliquot of 80 μL sample was transferred to a sample plate and mixed with 80 μL water, then the plate was shook at 800 rpm for 10 min. 1-10 μL of the supernatant was then injected for LC-MS/MS analysis under the following conditions:
MS conditions: ESI, positive;
Column: Waters ACQUITY UPLC BEH C18 2.1×50 mm, 1.7 μm;
Mobile phase A: 0.1% formic acid in water; and
Mobile phase B: 0.1% formic acid in acetonitrile.
Take `COc1cc2c(cc1OC)CN(CCc1ccc(-n3nnc(-c4cc(OC)c(OC)cc4NC(=O)c4cc(=O)c5ccccc5o4)n3)cc1)CC2.CS(=O)(=O)O.O` [encequidar methane sulfonic acid monohydrate]: the “AUC0-inf of oral docetaxel (area under the curve of plasma concentration)” value was found to be 698 ± 238 ng·h/mL, the “Cmax of oral docetaxel (maximum plasma concentration)” value came out at 316 ± 98.1 ng/mL and the “Tmax of oral docetaxel (time at the maximum plasma concentration)” value worked out at 42 ± 16.4 min.

The series is the same for the next values; noted with them: CD-1 mice; as compared to when there was no inhibitor.
Take `COc1cc2c(cc1OC)CN(CCc1ccc(-n3nnc(-c4cc(OC)c(OC)cc4NC(=O)c4cc(=O)c5ccccc5o4)n3)cc1)CC2.CS(=O)(=O)O.O` [encequidar methane sulfonic acid monohydrate]: the “increase in the systemic bioavailability of orally dosed docetaxel” value was 3.4 fold.

A further series deals with T1, P-glycoprotein (Homo sapiens, UniProt P08183).
T1 construct: A P-glycoprotein overexpressing cell line derived from the human uterine sarcoma cell line MES-SA; host or cells: MES-SA/DX5 (human uterine sarcoma, doxorubicin-selected)
T1 sequence (P08183 whole entry): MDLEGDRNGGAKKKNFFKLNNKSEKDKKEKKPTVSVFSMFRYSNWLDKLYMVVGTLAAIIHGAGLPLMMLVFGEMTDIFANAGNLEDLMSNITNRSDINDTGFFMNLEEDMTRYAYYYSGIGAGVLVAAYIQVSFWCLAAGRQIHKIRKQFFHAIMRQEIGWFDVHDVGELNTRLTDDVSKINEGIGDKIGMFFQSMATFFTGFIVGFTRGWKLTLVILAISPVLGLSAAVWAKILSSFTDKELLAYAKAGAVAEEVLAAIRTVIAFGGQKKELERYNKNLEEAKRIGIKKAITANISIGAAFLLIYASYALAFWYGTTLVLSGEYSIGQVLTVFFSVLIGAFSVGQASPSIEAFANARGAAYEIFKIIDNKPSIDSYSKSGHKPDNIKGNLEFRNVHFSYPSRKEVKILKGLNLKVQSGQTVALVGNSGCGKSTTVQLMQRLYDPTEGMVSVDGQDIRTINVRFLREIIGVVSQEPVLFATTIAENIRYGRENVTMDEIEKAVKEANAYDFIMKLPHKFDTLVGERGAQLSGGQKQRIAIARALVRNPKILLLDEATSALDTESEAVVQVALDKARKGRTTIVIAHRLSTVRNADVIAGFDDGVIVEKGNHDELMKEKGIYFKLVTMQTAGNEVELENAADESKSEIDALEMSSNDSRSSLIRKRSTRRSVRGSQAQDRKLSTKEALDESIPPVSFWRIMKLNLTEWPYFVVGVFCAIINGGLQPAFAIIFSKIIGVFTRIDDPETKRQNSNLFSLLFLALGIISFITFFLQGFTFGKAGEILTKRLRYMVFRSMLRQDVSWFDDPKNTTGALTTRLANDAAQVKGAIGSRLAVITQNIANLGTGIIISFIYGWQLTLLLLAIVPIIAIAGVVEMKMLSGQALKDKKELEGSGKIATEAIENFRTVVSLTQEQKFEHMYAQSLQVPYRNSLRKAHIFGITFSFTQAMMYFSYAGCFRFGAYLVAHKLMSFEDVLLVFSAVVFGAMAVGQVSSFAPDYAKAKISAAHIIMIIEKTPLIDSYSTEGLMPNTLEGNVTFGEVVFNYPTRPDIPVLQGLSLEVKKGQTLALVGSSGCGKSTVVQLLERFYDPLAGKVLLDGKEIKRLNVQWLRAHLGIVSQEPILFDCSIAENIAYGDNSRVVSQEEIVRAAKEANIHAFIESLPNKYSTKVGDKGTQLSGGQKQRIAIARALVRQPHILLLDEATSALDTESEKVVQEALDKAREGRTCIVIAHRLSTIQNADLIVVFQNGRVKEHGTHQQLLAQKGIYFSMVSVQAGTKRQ
Briefly: Determination of P-glycoprotein inhibitory activity (MTT cell growth, MES-SA/DX5 cells with docetaxel or paclitaxel). It counts as cell-based. Conditions: compound + 100 nM docetaxel or 200 nM paclitaxel, 3 days. As for the experimental part:
A P-glycoprotein overexpressing cell line derived from the human uterine sarcoma cell line MES-SA (i.e., MES-SA/DX5 cells (ATCC)) was seeded by stepwise exposures to increasing concentrations of doxorubicin, in a 96-well plate at 6,500 cells/100 μL media (McCoy's 5A+10% FBS) in each well. The cells were incubated overnight at 37° C., 5% CO2. […] DMSO was used as a negative control and known P-glycoprotein inhibitor, encequidar methane sulfonic acid monohydrate (HM30181A), was used as a positive control. […] Treated cells were incubated for 3 days at 37° C., 5% CO2.
To value (reflecting the starting number of cells upon Compound treatment) of 3 wells of cells was determined by performing the following steps 1-4 as described below.
1. 10 μL MTT (5 mg/mL in PBS) was added to each well and incubated for 1.5 hours at 37° C., 5% CO2.
2. Culture media was removed and 100 μL of DMSO was added to each well.
3. The plate was gently shook until all purple MTT formazan crystals were dissolved. OD540 was then measured using microplate reader.
4. Cell growth percentage was calculated with the following equation:
Cell growth percentage=(T−T0)/(C−T0)×100%,
With `COc1cc2c(cc1OC)CN(CCc1ccc(-n3nnc(-c4cc(OC)c(OC)cc4NC(=O)c4cc(=O)c5ccccc5o4)n3)cc1)CC2.CS(=O)(=O)O.O` [encequidar methane sulfonic acid monohydrate], the EC50 is less than 100 nM.
